The values below come from paper PMC2929814 (Journal of medicinal chemistry, 2010).

Usually IC50 stands for the midpoint of a concentration-inhibition curve.

Series [1] relates to parasitemia. The note with it: mouse model, oral dosing; cited from earlier work.
Series [2] has as its system mouse spleen lymphocytes. Put plainly: Cytotoxicity against mouse spleen lymphocytes. Particulars: estimated ±50%.
The subject of series [3] is P. falciparum D6 (CQS) strain. Put plainly: Activity against CQ-sensitive P. falciparum D6 in red cell culture. The series is classed as cell-based, Plasmodium falciparum.
In series [4] the test system is P. falciparum D6 (CQS) strain. Particulars: read-out: IC50 against the D6 strain; reported value; cited from earlier work.

Where two headings read alike, the source gives them in different places.

Take `CN(CCCNc1ccnc2cc(Cl)ccc12)CCCN1c2ccccc2CCc2ccccc21` [Compound 1]: in series [1], the “parasitemia cleared to” value was less than 1%. The Cytotoxicity in series [2] is 0.7 µM.
`Clc1ccc2c(NCCCNCCCCN(Cc3ccccc3)Cc3ccccc3)ccnc2c1` [Compound 5]: the Cytotoxicity in series [2] is 1.3 µM.
As to `Clc1ccc2c(N3CCN(CCN(Cc4ccccc4)Cc4ccccc4)CC3)ccnc2c1` [Compound 11], the Cytotoxicity in series [2] was 61 µM.
Turning to `O=C(CNCCNc1ccnc2cc(Cl)ccc12)N(c1ccccc1)c1ccccc1` [Compound 10], the “therapeutic index (cytotoxicity/efficacy) for D6” value in series [3] (cytotoxicity / IC50 D6) is 12,000. Also, the Cytotoxicity in series [2] is 62 µM.
`Clc1ccc2c(NCCN(CCN(Cc3ccccc3)Cc3ccccc3)CCN(Cc3ccccc3)Cc3ccccc3)ccnc2c1` [Compound 7]: in series [2], the Cytotoxicity is 6.2 µM.
Regarding `Clc1ccc2c(N3CCN(CCCN4CCN(c5ccnc6cc(Cl)ccc56)CC4)CC3)ccnc2c1` [piperaquine, 1,3-bis-[4-(7-chloroquinolyl-4)-piperazinyl-1]-propane], in series [4], the IC50 was less than 10 nM.
Regarding `CCN(CC)CCCC(C)Nc1ccnc2cc(Cl)ccc12` (stereo not shown) [CQ, chloroquine, reference compound], in series [3] (Plasmodium falciparum, D6, read-out: IC50 D6 (CQS)), the IC50 is 7 nM. Moreover, the Cytotoxicity in series [2] was 12 µM.
